Results published in US12275685B2, “Oligo-benzamide analogs and their use in cancer treatment” (Board of Regents, The University of Texas System, priority 2018, dated 2025).
Blank lines part the entries; values can stand above or below the compound they belong to.

Legend:
[1] = target: T1, lipase activity of LIPA (Homo sapiens, UniProt P38571); assay: Lipase activity assay; assay type: biochemical; conditions: SUM-159 cells
T1 construct: lipase activity of parental SUM-159 (WT) and SUM-159 cells with LIPA KO; endogenous in cells; host or cells: SUM-159 (parental)
From the text: FIGS. 39A-N: (FIGS. 39A-E) Predicted binding mode of ERX-41 (colored in green) on the human lysosomal acid lipase (LAL, PDB code: 6V7N, LXXLL (SEQ ID NO: 1) domain colored in orange). (FIG. 39F) PDB structure of LAL protein showing relative positions of the catalytic domain (with H274Y MT) and the LXXLL (SEQ ID NO: 1) domain (L242P MT). (FIG. 39G) Evaluation of the effect of ERX-41 and lalistat (known lipase inhibitor) on lipase activity of parental SUM-159 (WT) and SUM-159 cells with LIPA KO. (FIG. 39H) Evaluation of basal lipase activity in parental SUM-159 (WT), SUM-159 cells with LIPA KO (KO), SUM-159 cells with LIPA KO and with reconstitution of either WT LIPA (KO+WT), H274Y MT-LIPA (KO+H274Y), DLXXLL (SEQ ID NO: 2) MT-LIPA (KO+DLXXLL (SEQ ID NO: 2)) or L242P MT-LIPA (KO+L242P). Protein expression of LAL and control vinculin in these cells are shown below (FIG. 391) Cellular lysates from described SUM-159 cells were incubated with biotinylated ERX-11 or biotinylated ERX-41 and then subject to a streptavidin column. Elutants were then evaluated for LIPA pulldown by western blotting. (FIG. 39J) Dose response curve to increasing concentrations of ERX-41 in described SUM-159 cells. (FIGS. 39K-M) Effect of vehicle or 1 μM ERX-41 on induction of UPR genes at the protein level (FIG. 39K) or RNA level (FIGS. 39L-M). […]

[2] = test system: MT-ERα; assay: MT-ERα protein levels; assay type: cell-based
[3] = target: ERα (Homo sapiens, UniProt P03372); assay type: cell-based; conditions: WT-ERα
[4] = test system: MCF-7 MT-ERα Y537S cells; assay type: cell-based; conditions: 200 nM
[5] = test system: ZR-75 MT-ERα cells; assay: Colony formation, ZR-75 MT-ERα; assay type: cell-based
Experimental: The 200 nM dose for these drugs reflects the level at which each of these drugs has a significant effect on spheroid formation in the MCF-7 WT-ERa cells. Taken together, these studies indicate that TX-542 has significant activity against both WT-ERα and MT-ERα driven ERα+ BC cell lines and is a worthwhile candidate for further study.

[6] = test system: MCF-7 MT-ERα Y537S and D538G cells; assay type: cell-based; conditions: comparators at 200 nM in MCF-7 MT-ERα Y537S cells
[7] = test system: BC cells expressing MT-ERα (MCF-7, ZR-75, T47-D); assay: Cell titer glo antiproliferative assay in MT-ERα BC cells; assay type: cell-based; conditions: T47-D Y537S MT
From the text: FIG. 52: Comparative efficacy of TX-542 and SERDs in BC cells expressing WT and/or MT ERα: Using CRISPR-Cas9, both copies of WT ERα genes were knocked out in ZR-75 and T47-D, while only one copy of WT Era was knocked out in MCF-7 cells. Following knockout of WT ERα clones with stable expression of either Y537S ERα MT or the D538G ERα MT were selected. […] ERα-negative TNBC cells (SUM-159 and MDA-MB-231) were used as controls. Dose response curves were generated for ERX-11, TX-542 and SERDs using cell titer glo assays. IC50 values for each cell line and drug were calculated and tabulated. Tam=tamoxifen, ICI=fulvestrant, GDC-0810=Genentech SERD, AZD-9496 Astra Zeneca SERD, RAD-1901=Radius SERD, Palbo=Palbociclib. IC50 values<50 nM are shown in red.
TX-542. TX-542 was potent (IC50˜20-50 nM) as an antiproliferative agent against expressing MT-ERα, both in genetically modified MCF-7 cells with one WT-ERα allele and one MT-ERα allele introduced by CRISPR and genetically modified ZR-75 or T47-D cells in which both copies of WT-ERα alleles were replaced using CRISPR with MT-ERα. TX-542 had no activity against ER-null (SUM-159 or MDA-MB-231 cells) or non-tumorigenic breast epithelial cells, such as human mammary epithelial cells (HMEC). […] In addition, these agents are not able to consistently target all the MT-ERα forms in distinct genetic contexts, as shown in FIG. 52 and as reported by others.

[8] = target: T2, vitamin D receptor (VDR) (Homo sapiens, UniProt P11473); assay: Vitamin D receptor inhibition; assay type: cell-based
T2 construct: endogenous in cells; host or cells: cancer cells

[9] = test system: MT-ERα; assay: RNA sequencing of MT-ERα transcriptional programme; assay type: cell-based; conditions: MCF-7 and ZR-75 cells expressing D538G and Y537S MT-ERα
From the text: FIGS. 66A-D: (FIG. 66A) Effect of ERX-315 on ERa DNA binding on the promoters of 5 canonical ERα-regulated genes with ERa ChIP in MCF-7 expressing D538G MT-ERα in the absence and presence of estradiol.
Prior studies have shown that MT-ERα drives a canonical ERα transcriptional programme, both in the absence and presence of estradiol. RNA sequencing studies indicate that ERX-315 alters the transcriptional heatmap in MCF-7 and ZR-75 cells expressing D538G and Y537S MT-ERα (FIG. 66B, data shown for MCF-7 cells expressing D538G MT-ERα).

[10] = test system: OCa cells; assay: MTT assay in OCa cells; assay type: cell-based
Experimental: FIGS. 12A-12D show the effect of TK208 against ovarian cancer cell lines ES2 (FIGS. 12A & 12B) and SKOV3 (FIGS. 12C & 12D).
FIGS. 42A-D: OCa cells were treated with ERX-11 (FIG. 42A) or ERX-208 (FIG. 42B). Primary OCa cells derived from ascites were treated with ERX-208 for 72 h (FIG. 42C) and cell viability by MTT assays. (FIG. 42D) Effect of ERX-208 on viability of IOSE cells was measured using MTT assays and TOV21G was used as +ve control.
ERX-208. […] Functionally, ERX-208 causes growth inhibition of OCa cells, as noted by MTT assays using five established OCa cells (ES2, SKOV3, A2780, TOV21G, TOV112D) and five primary OCa cells derived from HGSOC patient ascites (AS21, AS23, AS25, AS28, AS29) (FIGS. 42B-C). […] The inventor noted an IC50 of ˜50-100 nM for ERX-208 both for inducing ERS and in reducing the growth of OCa cells.

[11] = test system: WT- and MT-ERα-driven cell lines (MCF-7, ZR-75); assay: Anti-proliferative activity in WT- and MT-ERα-driven cell lines; assay type: cell-based
[12] = test system: breast cancer cells; assay: Growth inhibition of breast cancer cells; assay type: cell-based; conditions: relative to ovarian cancer cells
From the text: (§1) In addition, another tris-benzmaide compound TK208 was synthesized and tested against breast cancer and ovarian cancer cell lines (FIGS. 10-15). […] These compounds (e.g., TK41, TK208, TK308 (FIG. 21), TK309 (FIG. 22), TK314, TK315) are extremely potent compounds that inhibit tumor growth and kill breast and ovarian cancer cells and as such, they are superb therapeutic candidates for such diseases.

[13] = test system: ovarian cancer cells; assay: Growth inhibition of ovarian cancer cells; assay type: cell-based
From the text: FIGS. 10A & 10B show effects of TK208 against cancer cells.
as §1

Chain of ERα (P03372 whole entry): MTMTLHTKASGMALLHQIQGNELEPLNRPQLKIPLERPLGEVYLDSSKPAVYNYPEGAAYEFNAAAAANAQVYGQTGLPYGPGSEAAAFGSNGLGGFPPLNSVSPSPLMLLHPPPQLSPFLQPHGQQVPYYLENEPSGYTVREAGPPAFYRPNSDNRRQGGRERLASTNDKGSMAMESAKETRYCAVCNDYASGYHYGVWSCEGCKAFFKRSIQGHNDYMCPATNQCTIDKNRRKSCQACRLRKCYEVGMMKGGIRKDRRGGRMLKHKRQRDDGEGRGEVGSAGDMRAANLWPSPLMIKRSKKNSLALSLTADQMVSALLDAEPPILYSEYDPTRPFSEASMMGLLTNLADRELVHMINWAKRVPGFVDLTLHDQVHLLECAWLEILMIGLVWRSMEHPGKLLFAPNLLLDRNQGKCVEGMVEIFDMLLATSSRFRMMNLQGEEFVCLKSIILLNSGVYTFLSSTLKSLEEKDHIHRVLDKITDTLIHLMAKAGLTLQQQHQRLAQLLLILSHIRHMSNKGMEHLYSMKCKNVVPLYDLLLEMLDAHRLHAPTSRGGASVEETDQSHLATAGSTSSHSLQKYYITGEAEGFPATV
T2 sequence (P11473 whole entry): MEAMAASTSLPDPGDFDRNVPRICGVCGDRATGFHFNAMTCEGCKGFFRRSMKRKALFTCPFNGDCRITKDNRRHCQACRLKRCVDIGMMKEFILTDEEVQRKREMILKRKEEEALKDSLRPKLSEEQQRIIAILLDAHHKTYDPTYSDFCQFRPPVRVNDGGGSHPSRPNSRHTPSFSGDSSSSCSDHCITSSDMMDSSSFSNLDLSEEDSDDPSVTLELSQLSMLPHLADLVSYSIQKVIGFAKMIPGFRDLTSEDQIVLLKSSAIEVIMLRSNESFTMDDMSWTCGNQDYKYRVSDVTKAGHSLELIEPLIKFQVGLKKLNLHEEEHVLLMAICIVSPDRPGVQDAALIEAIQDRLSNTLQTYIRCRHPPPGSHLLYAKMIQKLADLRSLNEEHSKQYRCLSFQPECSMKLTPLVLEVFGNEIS
T1 sequence (P38571 77-399): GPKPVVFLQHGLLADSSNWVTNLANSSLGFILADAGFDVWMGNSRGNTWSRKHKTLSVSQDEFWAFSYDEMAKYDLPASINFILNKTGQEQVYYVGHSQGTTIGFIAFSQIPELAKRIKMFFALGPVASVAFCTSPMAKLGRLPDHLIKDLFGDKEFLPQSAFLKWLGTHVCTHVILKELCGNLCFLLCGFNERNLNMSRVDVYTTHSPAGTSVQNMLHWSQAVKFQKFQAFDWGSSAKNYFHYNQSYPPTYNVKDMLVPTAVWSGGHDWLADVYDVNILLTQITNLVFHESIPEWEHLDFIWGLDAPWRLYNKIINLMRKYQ

effect on lipase activity of LIPA [1]: attenuated lipase activity
SMILES: O=C(Oc1nsnc1N1CCCCC1)N1CCCCC1 [lalistat, reference compound]

time to WT-ERα degradation [3]: ≤ 4 h
SMILES: C[C@]12CC[C@@H]3c4ccc(O)cc4C[C@@H](CCCCCCCCC[S+]([O-])CCCC(F)(F)C(F)(F)F)[C@H]3[C@@H]1CC[C@@H]2O (stereo partly shown) [fulvestrant]
ability to decrease MT-ERα protein levels [2]: neither fulvestrant nor GDC-0810 were able to decrease MT-ERα protein levels
soft agar colony formation [4]: significantly affected colony formation
colony formation in ZR-75 MT-ERα cells [5]: activity was not seen
spheroid size or architecture [6]: neither ERX-11, palbociclib, GDC-0810 nor AZD-9496, tamoxifen nor fulvestrant (at 200 nM) significantly disrupted spheroid size or architecture

SMILES: C[C@@H]1Cc2c([nH]c3ccccc23)[C@@H](c2c(F)cc(/C=C/C(=O)O)cc2F)N1CC(C)(C)F [AZD-9496]
activity against T47-D Y537S MT [7]: potent activity
soft agar colony formation [4]: significantly affected colony formation
colony formation in ZR-75 MT-ERα cells [5]: activity was not seen
spheroid size or architecture [6]: neither ERX-11, palbociclib, GDC-0810 nor AZD-9496, tamoxifen nor fulvestrant (at 200 nM) significantly disrupted spheroid size or architecture

inhibition of VDR [8]: high potency
SMILES: CC(C)COc1cc(C(=O)Nc2ncc[nH]2)ccc1NC(=O)c1ccc(NC(=O)c2ccc([N+](=O)[O-])c(OCCO)c2)c(OCC(C)C)c1 [YL144]

SMILES: CC/C(=C(\c1ccccc1)c1ccc(OCCN(C)C)cc1)c1ccccc1 [tamoxifen]
MT-ERα transcriptional programme [9]: neither tamoxifen nor ERX-314 is able to alter the ERα-regulated transcriptome
soft agar colony formation [4]: neither the parental ERX-11, tamoxifen nor GDC0810 SERD (at the same concentrations) had an effect on colony formation
spheroid size or architecture [6]: neither ERX-11, palbociclib, GDC-0810 nor AZD-9496, tamoxifen nor fulvestrant (at 200 nM) significantly disrupted spheroid size or architecture

SMILES: CC(C)COc1cc(C(N)=O)ccc1NC(=O)c1ccc(NC(=O)c2ccc([N+](=O)[O-])c(OCCO)c2)c(OCC(C)C)c1 [ERX-11, reference compound]
activity against OCa cells / cell viability [10]: limited activity
soft agar colony formation [4]: neither the parental ERX-11, tamoxifen nor GDC0810 SERD (at the same concentrations) had an effect on colony formation
spheroid size or architecture [6]: neither ERX-11, palbociclib, GDC-0810 nor AZD-9496, tamoxifen nor fulvestrant (at 200 nM) significantly disrupted spheroid size or architecture

SMILES: CC/C(=C(/c1ccc(/C=C/C(=O)O)cc1)c1ccc2[nH]ncc2c1)c1ccc(F)cc1Cl [GDC-0810]
ability to decrease MT-ERα protein levels [2]: neither fulvestrant nor GDC-0810 were able to decrease MT-ERα protein levels
soft agar colony formation [4]: neither the parental ERX-11, tamoxifen nor GDC0810 SERD (at the same concentrations) had an effect on colony formation
spheroid size or architecture [6]: neither ERX-11, palbociclib, GDC-0810 nor AZD-9496, tamoxifen nor fulvestrant (at 200 nM) significantly disrupted spheroid size or architecture

SMILES: CC(C)COc1cc(C(=O)Nc2ccc(C(=O)N[C@H]3CC[C@H](C)CC3)cc2OCC(C)C)ccc1NC(=O)c1ccc(F)c(OCCO)c1 [TK314]
MT-ERα transcriptional programme [9]: neither tamoxifen nor ERX-314 is able to alter the ERα-regulated transcriptome
IC50 [11]: 1500 to 5000 nM
activity against breast cancer cells [12]: significantly less activity against breast cancer cells
IC50 [13]: 10 to 50 nM
activity against ovarian cancer cells [13]: unique activity against ovarian cancer cells
